Data reported in US20200000752A1, “Method for Treating Epilepsy” (Vanderbilt University, priority 2016, published 2020).

What was measured:
[1] = In vivo exposure (IV and PO) in rat
GABAA receptor subunits = experiment: Surface GABAA receptor subunit expression in Scn1a+/- mice; type: in vivo, mouse; details: 0.3 mg/kg IP for 14 days, cortex and thalamus
Method: The biotinylated surface proteins from either cortex (FIG. 15A) or thalamus (FIG. 15B) were analyzed by SDS-PAGE and immunoblotted with anti-GABAA receptor al subunit antibody. The protein IDVs of al subunits were normalized to its loading control and then to that in either cortex (cor) or thalamus (tha) in untreated wild-type mice (n==4) (FIGS. 15C and 15D). […] In FIGS. 15E and 15G, MJ stands for myoclonic jerks with behavioral correlation while GTCS for generalized tonic clonic seizures. The number of myoclonic jerks (MJ) and generalized tonic clonic seizures (GTCS) is the total number over 24 hrs. In G, mice were from the same litter, n=2 for each genotype.

[2] = PK of celastrol from IV, IP and PO studies in C57BL/6J mice; details: male, mouse, whole blood
Scn1a^+/− mouse = experiment: Chronic intermittent dosing toxicity in an Scn1a+/- mouse; type: in vivo
Excerpt: An eight-month old male Scn1a^+/− mouse with chronic intermittent dosing was investigated for cortex and hippocampus neuronal survival, which was normal (FIG. 8A).

Plasma protein binding = type: in vitro ADME; details: read-out: fraction unbound in plasma (fuplasma)
MDCKII cells = experiment: MDCKII bidirectional assay; type: in vitro ADME; details: MDCK II bidirectional assay
Excerpt: (§1) MDCKII bidirectional assay was run in collaboration with Dr. Shaun Stauffer in Vanderbilt Institute of Chemical Biology (VICB) synthesis core who is a consultant on this project.

[3] = MDCKII bidirectional assay; type: in vitro ADME; details: dog
Excerpt: as §1

[4] = tested on: GABAA receptor α1 and γ2 subunits; experiment: Surface and total GABAA receptor subunit expression in Gabrg2+/Q390X mice; type: in vivo, mouse
Method: As shown in FIG. 14A upper panel, the surface proteins (FIG. 14A) from the live mouse brain slices were biotinylated and analyzed by SDS-PAGE and immunoblotted with anti-γ2 or anti-al subunit antibody. In the lower panel, the protein from total lysates of cortex was analyzed by SDS-PAGE and immunoblotted with anti-γ2 subunit antibody. LC is the loading control GAPDH in the blots. FIG. 14B charts the protein IDVs of surface wild-type γ2 or al subunits (upper panel) or total level wild-type γ2 subunits (lower panel) were normalized to its loading control and then to that in untreated wild-type mice which was arbitrarily taken as 1.

CYP 2C19 = CYP 2C19 (Homo sapiens, UniProt P33261); experiment: biochemical
Sequence of CYP 2C19 (P33261 whole entry): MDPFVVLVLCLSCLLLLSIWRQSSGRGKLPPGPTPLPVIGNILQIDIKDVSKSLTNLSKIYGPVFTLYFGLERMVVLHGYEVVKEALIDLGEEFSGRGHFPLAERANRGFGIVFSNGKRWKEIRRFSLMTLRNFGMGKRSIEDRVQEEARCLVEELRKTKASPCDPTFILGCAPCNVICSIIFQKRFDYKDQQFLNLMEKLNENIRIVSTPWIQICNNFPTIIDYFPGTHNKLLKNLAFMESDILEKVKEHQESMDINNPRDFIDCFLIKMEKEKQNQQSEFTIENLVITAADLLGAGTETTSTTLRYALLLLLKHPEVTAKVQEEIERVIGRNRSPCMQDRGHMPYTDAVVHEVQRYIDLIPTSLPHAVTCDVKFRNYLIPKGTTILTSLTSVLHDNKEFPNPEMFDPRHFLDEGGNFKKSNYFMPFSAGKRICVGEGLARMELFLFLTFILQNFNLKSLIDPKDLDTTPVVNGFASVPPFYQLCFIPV

[5] = Hepatic microsomal clearance (human); type: in vitro ADME; details: liver microsomes, pH 7.4
Method: Intrinsic clearance and predicted hepatic clearance: Intrinsic clearance will be determined using the substrate depletion approach. Reactions (0.3 mL) will be conducted using a Tecan EVO (San Jose, Calif.) in 96-well polypropylene cluster tubes with a temperature controlled water-jacketed aluminum plate holder held at 37° C. Incubations will be performed in triplicate in 0.1 M potassium phosphate buffer (pH 7.4), 3 mM MgCl2, 1 μM tizanidine, and 1 mg/mL liver microsomes. After incubation mixtures are equilibrated for 3 min at 37° C., reactions will be initiated with 10 mM NADPH to give a final NADPH concentration of 1 mM. At 0, 3, 7, 15, 25, and 45 min, a 25 μL aliquot will be removed from the reactions and delivered into 125 μL of acetonitrile containing an internal standard. The quench plates will then be centrifuged at 3,000×g for 10 min and an aliquot of the supernatants added to an injection plate with an equal volume of water. Samples will then be analyzed using LC/MS/MS.
Intrinsic clearance is calculated as: […]
Species-specific parameters for mouse and human liver protein content will be used. The predicted hepatic clearance will then be estimated using species-specific liver blood flow values: […]

[6] = rats; cited from earlier work
seizure activity = experiment: Oral gavage for 2 weeks, seizure threshold and seizure activity; type: in vivo, mice; details: oral gavage 3 mg/kg for 2 weeks
Caco2 cells = experiment: Caco-2 intrinsic permeability
[7] = Caco-2 intrinsic permeability; details: human
CYP 2C9 = CYP 2C9 (Homo sapiens, UniProt P11712); experiment: biochemical
Sequence of CYP 2C9 (P11712 whole entry): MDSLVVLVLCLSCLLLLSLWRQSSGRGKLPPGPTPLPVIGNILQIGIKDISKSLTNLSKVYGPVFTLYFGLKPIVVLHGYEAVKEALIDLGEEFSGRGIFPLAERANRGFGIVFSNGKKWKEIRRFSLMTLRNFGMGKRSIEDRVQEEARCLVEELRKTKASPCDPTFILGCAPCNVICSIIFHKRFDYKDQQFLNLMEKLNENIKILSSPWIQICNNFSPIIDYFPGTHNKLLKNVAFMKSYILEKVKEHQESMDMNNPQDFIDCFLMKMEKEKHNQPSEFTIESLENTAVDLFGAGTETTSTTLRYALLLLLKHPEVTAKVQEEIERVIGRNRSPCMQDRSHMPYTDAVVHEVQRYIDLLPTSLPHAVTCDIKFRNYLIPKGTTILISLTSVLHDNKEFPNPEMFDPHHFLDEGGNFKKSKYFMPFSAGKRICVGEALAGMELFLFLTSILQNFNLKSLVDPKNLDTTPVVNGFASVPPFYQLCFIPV

[8] = Tolerability of repeated daily IP dosing in mice; type: in vivo
Scn1a^+/− mice = experiment: PTZ-induced seizures in Scn1a+/- mice after 14 days treatment; type: in vivo, mouse; details: 0.3 mg/kg IP 14 days; PTZ 50 mg/kg IP
CYP 1A2 = CYP 1A2 (Homo sapiens, UniProt P05177); experiment: biochemical
Sequence of CYP 1A2 (P05177 whole entry): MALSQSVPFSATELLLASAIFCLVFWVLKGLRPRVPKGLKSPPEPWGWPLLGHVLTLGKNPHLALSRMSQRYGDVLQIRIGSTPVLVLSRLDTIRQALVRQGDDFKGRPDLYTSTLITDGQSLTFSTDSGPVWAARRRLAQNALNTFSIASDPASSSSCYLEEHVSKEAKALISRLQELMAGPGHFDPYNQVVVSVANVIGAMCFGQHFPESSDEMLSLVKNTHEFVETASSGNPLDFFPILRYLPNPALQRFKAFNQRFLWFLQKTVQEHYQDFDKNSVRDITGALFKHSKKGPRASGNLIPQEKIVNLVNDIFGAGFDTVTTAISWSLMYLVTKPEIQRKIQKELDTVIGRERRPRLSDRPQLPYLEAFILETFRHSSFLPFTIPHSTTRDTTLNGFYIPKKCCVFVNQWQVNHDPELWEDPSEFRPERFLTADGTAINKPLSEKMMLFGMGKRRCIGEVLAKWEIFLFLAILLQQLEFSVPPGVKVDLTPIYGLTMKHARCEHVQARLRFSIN

PI3K/AKT pathway = PI3K/AKT pathway activation in vitro; type: cell-based
heat shock protein Hsp70 = experiment: Hsp70 expression by high throughput flow cytometry in HEK 293T cells; type: cell-based; details: 4 hrs before harvest
Excerpt: HEK 293T cells were transfected with α1, β2 and wild-type γ2S (wt) or the mutant γ2S(Q390X) (mut) subunits for 48 hrs (FIG. 16). […] The cells were permeabilized and stained with monoclonal hsp70 (1:200) which was then conjugated with Alexa 647.

CYP 2D6 = CYP 2D6 (Homo sapiens, UniProt P10635); experiment: biochemical
Sequence of CYP 2D6 (P10635 whole entry): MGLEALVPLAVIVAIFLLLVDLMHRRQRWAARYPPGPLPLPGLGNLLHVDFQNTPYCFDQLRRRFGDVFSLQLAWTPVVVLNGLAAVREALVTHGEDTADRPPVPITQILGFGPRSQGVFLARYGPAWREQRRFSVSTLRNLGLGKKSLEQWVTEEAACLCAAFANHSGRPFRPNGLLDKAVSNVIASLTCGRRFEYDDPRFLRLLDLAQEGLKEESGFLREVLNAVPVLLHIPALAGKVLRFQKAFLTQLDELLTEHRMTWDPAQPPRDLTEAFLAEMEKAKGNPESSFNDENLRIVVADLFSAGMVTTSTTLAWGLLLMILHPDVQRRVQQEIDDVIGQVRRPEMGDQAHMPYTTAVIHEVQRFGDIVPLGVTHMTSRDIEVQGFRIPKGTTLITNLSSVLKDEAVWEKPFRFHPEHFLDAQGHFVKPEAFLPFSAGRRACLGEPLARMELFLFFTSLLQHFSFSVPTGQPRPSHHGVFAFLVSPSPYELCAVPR

[9] = 3 litters with 6-8 grossly normal pups

CC1=C(O)C(=O)C=C2C1=CC=C1[C@@]2(C)CC[C@@]2(C)[C@@H]3C[C@](C)(C(=O)O)CC[C@]3(C)CC[C@]12C [Celastrol, 3-Hydroxy-9β,13α-dimethyl-2-oxo-24,25,26-trinoroleana-1(10),3,5,7-tetraen-29-oic acid]
half-life [1]: 10 h | bioavailability ([1]; po): 7.8% | surface GABAA receptor subunit expression (GABAA receptor subunits): Increased | bioavailability [2]: ~20% | bioavailability ([2]; 10 mg/kg): 20% | fertility (Scn1a^+/− mouse; [9]): normal fertility | teratogenicity (Scn1a^+/− mouse; [9]): no teratogenicity | HE staining of liver, kidney and heart (Scn1a^+/− mouse; chronic intermittent dosing): Normal cell numbers, morphology and viability | HE staining of lung, spleen, intestine, testis, leg muscle and skin (Scn1a^+/− mouse; chronic intermittent dosing): no abnormalities were identified | blood counts (Scn1a^+/− mouse; chronic intermittent dosing): normal blood counts | organ function, total protein and metabolics (Scn1a^+/− mouse; chronic intermittent dosing): normal function of liver, heart and kidney and normal total protein and metabolics | cortex and hippocampus neuronal survival (Scn1a^+/− mouse; eight-month old male, chronic intermittent dosing): normal | fraction unbound (Plasma protein binding): < 0.022 | efflux (MDCKII cells): no significant efflux | Papp ([3]; MDCK, MDCKII cells, read-out: apparent membrane permeability Papp): ≥ 1 ×10⁻⁶ cm/s | Papp A→B ([3]; MDCK II bidirectional assay): 56.5 ×10⁻⁶ cm/s | surface and total α1 and γ2 subunits ([4]; 0.3 mg/kg IP for 14 days, n=4 mice): increase of both the surface and total α1 and γ2 subunits were greater in the mutant mice than in the wildtype | increase of surface γ2 subunits compared with mutant mice treated with vehicle ([4]; 0.3 mg/kg, ip): 40-50% | IC50 (CYP 2C19): > 10 µM | CLint scaled [5]: 31 mL/min/kg | oral bioavailability (reported) [6]: 17.1% | seizure threshold and seizure activity (seizure activity): increasing seizure threshold and reducing seizure activity | membrane permeability in Caco2 assay, in words (Caco2 cells): high membrane permeability | Papp at 2 h, 2 microM [7]: ≥ 1 ×10⁻⁶ cm/s | IC50 (CYP 2C9): 4.88 µM | adverse signs ([8]; 3 and 6 mg/kg IP daily, Gabrg2^+/Q390X mice): lethargy, unkempt fur | adverse signs ([8]; IP 3 mg/kg daily for 5 days, starting at day 4): lethargy, unkempt fur and weight loss | tolerability ([8]; IP 0.3, 0.6 and 1.5 mg/kg daily for 7 days, C57BL/6J mice): tolerated well | adverse effect at doses other than 3 and 6 mg/kg ([8]; IP daily 2 weeks or oral gavage 14 days): no adverse effect | seizure threshold and seizures after PTZ (Scn1a^+/− mice): increased seizure threshold and decreased seizures | IC50 (CYP 1A2): > 10 µM | PI3K/AKT pathway (PI3K/AKT pathway): activate PI3K/AKT pathway | expression of Hsp70 (heat shock protein Hsp70): Increased | IC50 (CYP 2D6): > 10 µM
